According to ChEMBL document CHEMBL4382226, “Design, synthesis and evaluation of hybrid of tetrahydrocarbazole with 2,4-diaminopyrimidine scaffold as antibacterial agents” (Eur J Med Chem, 2019):
≈ marks a conversion by molar mass, not a printed value.

How the values were obtained:
Staphylococcus aureus [1] = assay: Antibacterial activity against erythromycin-resistant Staphylococcus aureus NRS-70 measured after 16 hrs; format: functional; details: NRS-70, 16 h
Staphylococcus aureus [2] = assay: Antibacterial activity against aminoglycosides/tetracycline-resistant Staphylococcus aureus NRS-1 measured after 16 hrs; format: functional; details: NRS-1, 16 h
Staphylococcus aureus [3] = assay: Antibacterial activity against gentamicin-resistant Staphylococcus aureus NRS-108 measured after 16 hrs; format: functional; details: NRS-108, 16 h
Escherichia coli = assay: Antibacterial activity against Escherichia coli AB1157 measured after 16 hrs; format: functional; details: AB1157, 16 h
Staphylococcus aureus [4] = assay: Antibacterial activity against Staphylococcus aureus Newman measured after 16 hrs; format: functional
Staphylococcus aureus [5] = assay: Antibacterial activity against oxacillin/tetracycline-resistant Staphylococcus aureus NRS-100 measured after 16 hrs; format: functional; details: NRS-100, 16 h
Staphylococcus aureus [6] = assay: Antibacterial activity against linezolid-resistant Staphylococcus aureus NRS-271 measured after 16 hrs; format: functional; details: NRS-271, 16 h
[7] = Clearance in Sprague-Dawley rat at 10 mg/kg, po administered as single dose via gavage; format: ADME, organism-based; details: in vivo
[8] = AUC (0 to t) in Sprague-Dawley rat at 10 mg/kg, po administered as single dose via gavage; format: ADME, organism-based; details: in vivo
[9] = Apparent volume of distribution in Sprague-Dawley rat at 10 mg/kg, po administered as single dose via gavage; format: ADME, organism-based; details: in vivo
[10] = AUC (0 to infinity) in Sprague-Dawley rat at 10 mg/kg, po administered as single dose via gavage; format: ADME, organism-based; parameters: dose 10 mg/kg, route oral, time infinity; details: in vivo
[11] = Tmax in Sprague-Dawley rat at 10 mg/kg, po administered as single dose via gavage; format: ADME, organism-based; details: in vivo
[12] = Half life in Sprague-Dawley rat at 10 mg/kg, po administered as single dose via gavage; format: ADME, organism-based; details: in vivo
[13] = Cmax in Sprague-Dawley rat at 10 mg/kg, po administered as single dose via gavage; format: ADME, organism-based; parameters: dose 10 mg/kg, route oral; details: in vivo
[14] = Mean residence time in Sprague-Dawley rat at 10 mg/kg, po administered as single dose via gavage; format: ADME, organism-based; details: in vivo

Row | MIC (Escherichia coli) [µg/mL] | MIC (Staphylococcus aureus [4]) [µg/mL] | SMILES | MIC (Staphylococcus aureus [1]) [µg/mL] | MIC (Staphylococcus aureus [2]) [µg/mL] | MIC (Staphylococcus aureus [3]) [µg/mL] | MIC (Staphylococcus aureus [5]) [µg/mL] | MIC (Staphylococcus aureus [6]) [µg/mL] | further results
1 | > 50 | > 50 | CC(C)CNc1nccc(NCCCNC2CCCc3c2[nH]c2ccc(C(=O)O)cc32)n1 (stereo not drawn) | – | – | – | – | – | –
2 | – | 4 to 8 (≈ 12.6 to 25.1 µM) | Cc1ccc2[nH]c3c(c2c1)CCCC3NCCCc1ccccc1 (stereo not drawn) | – | – | – | – | – | –
3 | 12.5 to 25 (≈ 31.8 to 63.7 µM) | 12.5 to 25 (≈ 31.8 to 63.7 µM) | CC(C)CNc1nccc(NCCCNC2CCCc3c2[nH]c2ccccc32)n1 (stereo not drawn) | – | – | – | – | – | –
4 | 12.5 to 25 (≈ 30.4 to 60.9 µM) | 12.5 to 25 (≈ 30.4 to 60.9 µM) | CC(C)CNc1nccc(NCCCNC2CCCc3c2[nH]c2ccc(F)cc32)n1 (stereo not drawn) | – | – | – | – | – | –
5 | – | 15 to 30.2 (≈ 49.3 to 99.2 µM) | Cc1ccc2[nH]c3c(c2c1)CCCC3NCCc1ccccc1 (stereo not drawn) | – | – | – | – | – | –
6 | 1.56 to 3.13 (≈ 3.41 to 6.84 µM) | 1.56 to 3.13 (≈ 3.41 to 6.84 µM) | CC(C)CNc1nccc(NCCNC2CCCc3c2[nH]c2ccc(Br)cc32)n1 (stereo not drawn) | – | – | – | – | – | –
7 | – | 14.5 to 20.9 (≈ 49.9 to 72 µM) | Cc1ccc2[nH]c3c(c2c1)CCCC3NCc1ccccc1 (stereo not drawn) | – | – | – | – | – | –
8 | > 50 | 25 to 50 (≈ 59.2 to 118 µM) | COc1ccc2[nH]c3c(c2c1)CCCC3NCCCNc1ccnc(NCC(C)C)n1 (stereo not drawn) | – | – | – | – | – | –

The remaining lines, values behind:

Row | SMILES | MIC (Escherichia coli) [µg/mL] | MIC (Staphylococcus aureus [4]) [µg/mL] | MIC (Staphylococcus aureus [1]) [µg/mL] | MIC (Staphylococcus aureus [2]) [µg/mL] | MIC (Staphylococcus aureus [3]) [µg/mL] | MIC (Staphylococcus aureus [5]) [µg/mL] | MIC (Staphylococcus aureus [6]) [µg/mL] | further results
9 | NC[C@H]1O[C@H](O[C@H]2[C@H](O)[C@@H](O[C@H]3O[C@H](CO)[C@@H](O)[C@H](N)[C@H]3O)[C@H](N)C[C@@H]2N)[C@H](O)[C@@H](O)[C@@H]1O [KANAMYCIN] | > 50 | – | 50 to 75 (≈ 103 to 155 µM) | 50 to 75 (≈ 103 to 155 µM) | 50 to 75 (≈ 103 to 155 µM) | – | – | –
10 | CC(C)CNc1nccc(NCCCNC2CCCc3c2[nH]c2c(Br)cccc32)n1 (stereo not drawn) | 6.25 to 12.5 (≈ 13.3 to 26.5 µM) | 3.13 to 6.25 (≈ 6.64 to 13.3 µM) | 6.25 to 12.5 (≈ 13.3 to 26.5 µM) | 3.13 to 6.25 (≈ 6.64 to 13.3 µM) | 6.25 to 12.5 (≈ 13.3 to 26.5 µM) | 6.25 to 12.5 (≈ 13.3 to 26.5 µM) | 6.25 to 12.5 (≈ 13.3 to 26.5 µM) | –
11 | CC(C)CNc1nccc(NCCNC2CCCc3c2[nH]c2ccc(OC(F)(F)F)cc32)n1 (stereo not drawn) | 3.13 to 6.25 (≈ 6.77 to 13.5 µM) | 3.13 to 6.25 (≈ 6.77 to 13.5 µM) | – | – | – | – | – | –
12 | CC(C)CNc1nccc(NCCCNC2CCCc3c2[nH]c2ccc(Br)cc32)n1 (stereo not drawn) | 0.39 to 0.78 (≈ 0.827 to 1.65 µM) | 0.39 to 0.78 (≈ 0.827 to 1.65 µM) | 0.78 to 1.56 (≈ 1.65 to 3.31 µM) | 0.39 to 0.78 (≈ 0.827 to 1.65 µM) | 0.78 to 1.56 (≈ 1.65 to 3.31 µM) | 0.78 to 1.56 (≈ 1.65 to 3.31 µM) | 0.78 to 1.56 (≈ 1.65 to 3.31 µM) | CL/F [7]: 110 mL/min/kg; AUC(0-t) [8]: 1200 ng·h/mL; Vd/F [9]: 103 L/kg; AUC(0-inf) [10]: 1560 ng·h/mL; Tmax [11]: 3.6 h; half-life [12]: 10.8 h; Cmax [13]: 86.3 ng/mL; MRT [14]: 16.2 h
13 | CN[C@H](CC(C)C)C(=O)N[C@H]1C(=O)N[C@@H](CC(N)=O)C(=O)N[C@H]2C(=O)N[C@H]3C(=O)N[C@H](C(=O)N[C@H](C(=O)O)c4cc(O)cc(O)c4-c4cc3ccc4O)[C@H](O)c3ccc(c(Cl)c3)Oc3cc2cc(c3O[C@@H]2O[C@H](CO)[C@@H](O)[C@H](O)[C@H]2O[C@H]2C[C@](C)(N)[C@H](O)[C@H](C)O2)Oc2ccc(cc2Cl)[C@H]1O [VANCOMYCIN] | 6.25 to 12.5 (≈ 4.31 to 8.63 µM) | – | – | – | – | – | – | –
14 | CC(C)CNc1nccc(NCCCCNC2CCCc3c2[nH]c2ccc(Br)cc32)n1 (stereo not drawn) | 1.56 to 3.13 (≈ 3.21 to 6.45 µM) | 0.78 to 1.56 (≈ 1.61 to 3.21 µM) | – | – | – | – | – | –
15 | Cc1ccc2[nH]c3c(c2c1)CCCC3NCCCCc1ccccc1 (stereo not drawn) | – | 5 to 6.6 (≈ 15 to 19.9 µM) | 2.9 to 4.2 (≈ 8.72 to 12.6 µM) | 2.9 to 4.2 (≈ 8.72 to 12.6 µM) | 4.2 to 5.8 (≈ 12.6 to 17.4 µM) | 2.9 to 4.2 (≈ 8.72 to 12.6 µM) | 4.2 to 5.8 (≈ 12.6 to 17.4 µM) | –
16 | CC(C)CNc1nccc(NCCCNC2CCCc3c2[nH]c2ccc(Cl)cc32)n1 (stereo not drawn) | 1.56 to 3.13 (≈ 3.65 to 7.33 µM) | 1.56 to 3.13 (≈ 3.65 to 7.33 µM) | 3.13 to 6.25 (≈ 7.33 to 14.6 µM) | 1.56 to 3.13 (≈ 3.65 to 7.33 µM) | 1.56 to 3.13 (≈ 3.65 to 7.33 µM) | 3.13 to 6.25 (≈ 7.33 to 14.6 µM) | 1.56 to 3.13 (≈ 3.65 to 7.33 µM) | –
17 | COC(=O)c1ccc2[nH]c3c(c2c1)CCCC3NCCCNc1ccnc(NCC(C)C)n1 (stereo not drawn) | > 50 | 25 to 50 (≈ 55.5 to 111 µM) | – | – | – | – | – | –
18 | CC(C)CNc1nccc(NCCCNC2CCCc3c2[nH]c2ccc(C(F)(F)F)cc32)n1 (stereo not drawn) | 1.56 to 3.13 (≈ 3.39 to 6.8 µM) | 1.56 to 3.13 (≈ 3.39 to 6.8 µM) | 1.56 to 3.13 (≈ 3.39 to 6.8 µM) | 1.56 to 3.13 (≈ 3.39 to 6.8 µM) | 1.56 to 3.13 (≈ 3.39 to 6.8 µM) | 1.56 to 3.13 (≈ 3.39 to 6.8 µM) | 1.56 to 3.13 (≈ 3.39 to 6.8 µM) | –
19 | CC(C)CNc1nccc(NC2CCCc3c2[nH]c2ccc(OC(F)(F)F)cc32)n1 (stereo not drawn) | – | 0.78 to 1.56 (≈ 1.86 to 3.72 µM) | – | – | – | – | – | –
20 | CC(C)CNc1nccc(NCCCCNC2CCCc3c2[nH]c2ccc(OC(F)(F)F)cc32)n1 (stereo not drawn) | 3.13 to 6.25 (≈ 6.38 to 12.7 µM) | 1.56 to 3.13 (≈ 3.18 to 6.38 µM) | – | – | – | – | – | –
21 | CN(C)[C@@H]1C(O)=C(C(N)=O)C(=O)[C@@]2(O)C(O)=C3C(=O)c4c(O)cccc4[C@@](C)(O)[C@H]3C[C@@H]12 [TETRACYCLINE] | – | – | < 1.56 | > 12.5 | < 1.56 | < 1.56 | < 1.56 | –
22 | CC(C)CNc1nccc(NCCCNC2CCCc3c2[nH]c2ccc(OC(F)(F)F)cc32)n1 (stereo not drawn) | 1.56 to 3.13 (≈ 3.27 to 6.57 µM) | 1.56 to 3.13 (≈ 3.27 to 6.57 µM) | 1.56 to 3.13 (≈ 3.27 to 6.57 µM) | 1.56 to 3.13 (≈ 3.27 to 6.57 µM) | 1.56 to 3.13 (≈ 3.27 to 6.57 µM) | 1.56 to 3.13 (≈ 3.27 to 6.57 µM) | 1.56 to 3.13 (≈ 3.27 to 6.57 µM) | –
23 | COc1cccc2c3c([nH]c12)C(NCCCNc1ccnc(NCC(C)C)n1)CCC3 (stereo not drawn) | 12.5 to 25 (≈ 29.6 to 59.2 µM) | 12.5 to 25 (≈ 29.6 to 59.2 µM) | – | – | – | – | – | –
